Assay results: patent US4257941A, “Polycyclic nitrogen-containing compounds” (BASF Aktiengesellschaft, priority 1976, dated 1981)
Where two headings read alike, the source gives them in different places.

What was measured:
Type in all cases: in vivo
[1] = test system: Alopecurus myosuroides; test: Herbicidal action (Example 25); conditions: for pest or weed control at 2000 g/ha / pest or weed control at 4000 g/ha / pest or weed control at 8000 g/ha / pest or weed control at 1000 g/ha: Alopecurus myosuroides, read-out: percentage damage; for pest or weed control at 2000 g/ha: 2.0 kg/ha; for pest or weed control at 8000 g/ha: 8.0 kg/ha; for pest or weed control at 1000 g/ha: 1.0 kg/ha
Description: (§1) Paraffined paper cups having a volume of 170 cm^3 were filled with a sandy loam, and the seeds of the test plants sown therein, separated by species. (The species are also listed below.)
(§2) In the first group, treatment was effected immediately after sowing and before germination of the seeds (preemergence treatment=soil treatment). Shallow sown seeds not completely covered with soil came into contact with the active ingredients. In the second group, the plants were treated postemergence (=leaf treatment) at a growth height of from 2 to 8 cm, depending on the rate of growth and shape of the species concerned. The compounds were suspended or emulsified in water and applied with the aid of fine nozzles. The soil and plants were thoroughly sprinkler irrigated for the duration of the experiment. The cups were placed in the greenhouse and kept in the temperature range 12°-25° C. or 18°-35° C., depending on the temperature requirements of the various species. After 2 to 6 weeks the action was assessed visually on a 0 to 100 scale, 0 denoting no damage and 100 denoting plants not germinated or completely destroyed.

[2] = test system: Digitaria sanguinalis; test: Herbicidal action (Example 25); conditions: postemergence
Description: as §1, §2

[3] = test system: Eleusine indica; test: Herbicidal action (Example 25); conditions: postemergence
Description: as §1, §2

[4] = test system: Datura stramonium; test: Herbicidal action (Example 25); conditions: postemergence
Description: as §1, §2

[5] = test system: Festuca rubra; test: Growth height of individual grasses (Example 15); conditions: for Growth height: 3 weeks after treatment; for growth height relative: control 100
Description: (§3) Under the same conditions as in Example 13 the two grasses Festuca rubra and Poa praetensis (both components of the lawn mixture used in Example 13) were grown in a neutral sandy loam. The growth height was measured 3 weeks after treatment with the active ingredients.

[6] = test system: Poa praetensis; test: Growth height of individual grasses (Example 15); set-up: key to plant color: ^+: plants a darker green; conditions: for Growth height: 3 weeks after treatment; for growth height relative: control 100
Description: as §3

[7] = test system: tomatoes; test: Action on tomatoes (Example 22); conditions: leaf; for Plant height: 14 days; for Plant height relative: control 100
Description: Tomatoes were grown in the greenhouse in glass dishes 11.5 cm in diameter containing a peat substrate which was provided with an adequate supply of nutrients. The active ingredients were sprayed onto the leaves in conventional manner at a plant height of 9 to 12 cm.

[8] = test system: Sinapis alba; test: Herbicidal action (Example 25); conditions: read-out: percentage damage; for pest or weed control at 1000 g/ha: 1.0 kg/ha; for pest or weed control at 2000 g/ha: 2.0 kg/ha
Description: as §1, §2

[9] = test system: Echinochloa crus galli; test: Herbicidal action (Example 25)
Description: as §1, §2

[10] = test system: Galium aparine; test: Herbicidal action (Example 25); conditions: post-emergence, postemergence, 4.0 kg/ha, read-out: percentage damage
Description: as §1, §2

[11] = post-emergence, postemergence, 4.0 kg/ha
[12] = pre-emergence, preemergence, 4.0 kg/ha

| SMILES | pest or weed control at 2000 g/ha ([1]; post-emergence, postemergence) | pest or weed control at 4000 g/ha [1, 11] | pest or weed control at 8000 g/ha ([1]; post-emergence, postemergence) | pest or weed control at 2000 g/ha ([1]; pre-emergence, preemergence) | pest or weed control at 8000 g/ha ([1]; pre-emergence, preemergence) | percentage damage ([2]; 2.0 kg/ha) | percentage damage ([2]; 4.0 kg/ha) | percentage damage ([2]; 8.0 kg/ha) | percentage damage ([3]; 2.0 kg/ha) | percentage damage ([3]; 4.0 kg/ha) | percentage damage ([3]; 8.0 kg/ha) | percentage damage ([4]; 2.0 kg/ha) | percentage damage ([4]; 4.0 kg/ha) | percentage damage ([4]; 8.0 kg/ha) | other results |
| --- | --- | --- | --- | --- | --- | --- | --- | --- | --- | --- | --- | --- | --- | --- | --- |
| c1ccc(N2N=NC3C4CC(C5N=NC45)C32)cc1 (stereo not shown) [drawing 429] | 15% | 38% | 45% | 70% | 90% | 60 percentage damage | 70 percentage damage | 80 percentage damage | 90 percentage damage | 90 percentage damage | 90 percentage damage | 60 percentage damage | 95 percentage damage | 100 percentage damage | percentage damage ([1]; preemergence, 4.0 kg/ha): 75 percentage damage |
| CN(C)C(=O)Nc1ccc(Oc2ccccc2)cc1 [drawing 424] | 15% | 22% | 38% | 30% | 25% | 50 percentage damage | 70 percentage damage | 90 percentage damage | 40 percentage damage | 50 percentage damage | 50 percentage damage | 95 percentage damage | 95 percentage damage | 100 percentage damage | pest or weed control at 4000 g/ha [1, 12]: 25% |
| Clc1ccc(N2N=NC3C4CC(C5N=NC45)C32)cc1 (stereo not shown) [drawing 385] | – | – | – | – | – | – | – | – | – | – | – | – | – | – | Growth height ([5]; 0.5 kg/ha): 27.0 cm; growth height relative ([5]; 0.5 kg/ha): 98.2; Growth height ([5]; 1.0 kg/ha): 25.5 cm; growth height relative ([5]; 1.0 kg/ha): 92.7; Growth height ([5]; 2.0 kg/ha): 23.5 cm; growth height relative ([5]; 2.0 kg/ha): 85.5; Growth height ([6]; 0.5 kg/ha): 20.0 cm; growth height relative ([6]; 0.5 kg/ha): 88.9; plant color ([6]; 1.0 kg/ha): ^+; Growth height ([6]; 1.0 kg/ha): 20.0 cm; growth height relative ([6]; 1.0 kg/ha): 88.9; plant color ([6]; 2.0 kg/ha): ^+; Growth height ([6]; 2.0 kg/ha): 15.5 cm; growth height relative ([6]; 2.0 kg/ha): 68.9 |
| Clc1ccc(N2N=NC3C4CC(C5N=NC45)C32)cc1 (stereo not shown) [drawing 402] | – | – | – | – | – | – | – | – | – | – | – | – | – | – | Plant height ([7]; 1.5 kg/ha): 24.3 cm; Plant height relative ([7]; 1.5 kg/ha): 89.3; Plant height ([7]; 3.0 kg/ha): 20.3 cm; Plant height relative ([7]; 3.0 kg/ha): 74.6; Plant height ([7]; 6.0 kg/ha): 14.0 cm; Plant height relative ([7]; 6.0 kg/ha): 51.5 |
| CC(C)OC(=O)Nc1cccc(Cl)c1 [drawing 423] | 25% | 25% | 30% | 95% | 98% | 80 percentage damage | 80 percentage damage | 90 percentage damage | 50 percentage damage | 50 percentage damage | 50 percentage damage | 30 percentage damage | 40 percentage damage | 60 percentage damage | pest or weed control at 4000 g/ha [1, 12]: 95% |
| O=C(Nc1ccc(Cl)c(Cl)c1)C1CC1 | 30% | – | – | 0% | – | – | – | – | – | – | – | – | – | – | pest or weed control at 1000 g/ha ([1]; post-emergence, postemergence): 80%; pest or weed control at 1000 g/ha ([1]; pre-emergence, preemergence): 0%; pest or weed control at 1000 g/ha ([8]; post-emergence, postemergence): 100%; pest or weed control at 2000 g/ha ([8]; post-emergence, postemergence): 100%; pest or weed control at 1000 g/ha ([8]; pre-emergence, preemergence): 60%; pest or weed control at 2000 g/ha ([8]; pre-emergence, preemergence): 60%; percentage damage ([9]; postemergence, 1.0 kg/ha): 100 percentage damage; percentage damage ([9]; postemergence, 2.0 kg/ha): 100 percentage damage; percentage damage ([9]; preemergence, 1.0 kg/ha): 80 percentage damage; percentage damage ([9]; preemergence, 2.0 kg/ha): 90 percentage damage; pest or weed control at 4000 g/ha [10]: 0% |
| COc1ccc(NC(=O)N(C)C)cc1Cl | 70% | – | – | 0% | – | – | – | – | – | – | – | – | – | – | pest or weed control at 1000 g/ha ([1]; post-emergence, postemergence): 70%; pest or weed control at 1000 g/ha ([1]; pre-emergence, preemergence): 0%; pest or weed control at 1000 g/ha ([8]; post-emergence, postemergence): 100%; pest or weed control at 2000 g/ha ([8]; post-emergence, postemergence): 100%; pest or weed control at 1000 g/ha ([8]; pre-emergence, preemergence): 90%; pest or weed control at 2000 g/ha ([8]; pre-emergence, preemergence): 90%; percentage damage ([9]; postemergence, 1.0 kg/ha): 100 percentage damage; percentage damage ([9]; postemergence, 2.0 kg/ha): 100 percentage damage; percentage damage ([9]; preemergence, 1.0 kg/ha): 80 percentage damage; percentage damage ([9]; preemergence, 2.0 kg/ha): 90 percentage damage; pest or weed control at 4000 g/ha [10]: 50% |
